Test results taken from ChEMBL document CHEMBL1201862, “PubChem BioAssay data set” (2004).
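Five concentrations, 48 hours, 96-well plates. At the GI50, growth is halved.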 Active and inactive are the calls of the source. No stated cut-off is given here; in the data, active = GI50 up to about 1.1 µM and inactive = higher.

Tests used:
Assay in all cases: inhibition of tumour cell growth, NCI panel, 48 h
[1] = system: 786-0
[2] = system: A498
[3] = system: A549
[4] = system: ACHN
[5] = system: CAKI-1
[6] = system: CCRF-CEM
[7] = system: COLO 205
[8] = system: DLD-1
[9] = system: DMS-114
[10] = system: DMS-273
[11] = system: EKVX
[12] = system: HCC 2998
[13] = system: HCT-116
[14] = system: HCT-15
[15] = system: HL-60
[16] = system: HOP-18
[17] = system: HOP-62
[18] = system: HOP-92
[19] = system: HT-29
[20] = system: IGROV-1
[21] = system: K562
[22] = system: KM-20L2
[23] = system: KM12
[24] = system: LOX IMVI
[25] = system: LXFL 529
[26] = system: M14
[27] = system: M19-MEL
[28] = system: MOLT-4
[29] = system: Malme-3M
[30] = system: NCI-H226
[31] = system: NCI-H23
[32] = system: NCI-H460
[33] = system: NCI-H522
[34] = system: OVCAR-3
[35] = system: OVCAR-4
[36] = system: OVCAR-5
[37] = system: OVCAR-8
[38] = system: RPMI-8226
[39] = system: RXF 393
[40] = system: RXF 631
[41] = system: SF-268
[42] = system: SF-295
[43] = system: SF-539
[44] = system: SK-MEL-28
[45] = system: SK-MEL-2
[46] = system: SK-MEL-5
[47] = system: SK-OV-3
[48] = system: SN12C
[49] = system: SNB-19
[50] = system: SNB-75
[51] = system: SNB-78
[52] = system: SW-620
[53] = system: TK-10
[54] = system: U-251
[55] = system: UACC-257
[56] = system: UACC-62
[57] = system: UO-31
[58] = system: XF498

Measured: GI50

Clc1c(Cl)c2c(Cl)c(Cl)c1C[PH](c1ccccc1)(c1ccccc1)CC[PH](c1ccccc1)(c1ccccc1)Cc1c(Cl)c(Cl)c(c(Cl)c1Cl)C[PH](c1ccccc1)(c1ccccc1)CC[PH](c1ccccc1)(c1ccccc1)C2
inactive: [1] 4.67 µM | [2] 11.4 µM | [3] 3.72 µM | [4] 4.69 µM | [5] 7.06 µM | [6] 2.46 µM | [7] 1.53 µM | [8] 2.37 µM | [9] 1.68 µM | [10] 2.42 µM | [11] 9.08 µM | [12] 3.63 µM | [13] 1.79 µM | [15] 1.36 µM | [16] 8.17 µM | [17] 4.95 µM | [18] 2.26 µM | [19] 2.21 µM | [20] 2.86 µM | [21] 2.09 µM | [22] 2.65 µM | [23] 2.34 µM | [24] 2.52 µM | [25] 2.15 µM | [26] 4.51 µM | [27] 2.81 µM | [28] 3.27 µM | [29] 2.38 µM | [30] 5.07 µM | [31] 2.01 µM | [32] 2.77 µM | [33] 2.56 µM | [34] 2.66 µM | [36] 3.15 µM | [37] 3.29 µM | [38] 1.28 µM | [39] 2.49 µM | [40] 6.68 µM | [41] 3.39 µM | [42] 3.35 µM | [43] 3.68 µM | [44] 2.02 µM | [45] 2.16 µM | [46] 1.67 µM | [47] 6.84 µM | [48] 3.28 µM | [49] 2.67 µM | [50] 3.46 µM | [51] 3.82 µM | [52] 3.31 µM | [53] 3.18 µM | [54] 3.22 µM | [55] 2.38 µM | [56] 1.85 µM | [57] 6.49 µM
active: [35] 1.11 µM
8.39 µM: [14]

O=c1c2ccccc2nc(-c2ccccc2Cl)n1NC1OC(CO)C(O)C(O)C1O (configuration not stated)
> 100 µM: [14]
inactive: [1] > 100 µM | [2] > 100 µM | [3] > 100 µM | [4] > 100 µM | [5] > 100 µM | [6] > 100 µM | [7] > 100 µM | [8] > 100 µM | [9] > 100 µM | [10] > 100 µM | [11] > 100 µM | [12] > 100 µM | [13] > 100 µM | [15] > 100 µM | [16] 32 µM | [17] > 100 µM | [18] > 100 µM | [19] > 100 µM | [20] > 100 µM | [21] > 100 µM | [22] > 100 µM | [23] > 100 µM | [25] > 100 µM | [26] > 100 µM | [27] > 100 µM | [28] > 100 µM | [29] > 100 µM | [30] > 100 µM | [31] > 100 µM | [32] > 100 µM | [33] > 100 µM | [34] > 100 µM | [35] > 100 µM | [36] > 100 µM | [37] > 100 µM | [38] > 100 µM | [41] > 100 µM | [42] > 100 µM | [43] > 100 µM | [44] > 100 µM | [45] > 100 µM | [46] > 100 µM | [47] > 100 µM | [48] > 100 µM | [49] > 100 µM | [50] 97.9 µM | [51] > 100 µM | [52] > 100 µM | [53] > 100 µM | [54] > 100 µM | [55] > 100 µM | [56] > 100 µM | [57] > 100 µM | [58] > 100 µM
